# Target: T1, S. aureus TrmD (Staphylococcus aureus, UniProt Q2FZ43)
# T1 construct: made in house; host or cells: E. coli BL21
# T1 sequence (Q2FZ43 1-245): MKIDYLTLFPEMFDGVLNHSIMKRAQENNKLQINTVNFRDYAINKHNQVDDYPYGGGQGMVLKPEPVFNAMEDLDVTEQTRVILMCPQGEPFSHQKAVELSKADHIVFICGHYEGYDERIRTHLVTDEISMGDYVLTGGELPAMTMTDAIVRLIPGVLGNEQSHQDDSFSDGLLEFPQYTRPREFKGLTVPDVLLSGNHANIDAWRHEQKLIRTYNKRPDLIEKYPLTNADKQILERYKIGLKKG
# Experiment: nanoSAR direct-to-biology FP displacement screening of crude triazoles
# Format: binding
# Conditions: crude triazole at 1 μM, assuming full conversion; 500 nM TrmD, 10 nM tracer 4; read-out: % displaced tracer
# In short: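 S. aureus TrmD (500 nM) with tracer 4 (10 nM) in Tris/NaCl/MgCl2/glycerol buffer, pH 7.5, was challenged with unpurified triazoles from in situ CuAAC of alkyne 7 with a 320-member azide library.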
row,Compound,inhibition at 1 µM
1,"O=c1[nH]cnc2[nH]cc(-c3cn(C[C@@H]4CCCCC4(F)F)nn3)c12 [Compound 04H03, F[C@@]1(F)[C@H](CN2N=NC(C=3C=4C(=O)NC=NC4NC3)=C2)CCCC1]",78%
2,"O=c1[nH]cnc2[nH]cc(-c3cn(Cc4cscn4)nn3)c12 [Compound 02E07, S1C=NC(=C1)CN2N=NC(C=3C=4C(=O)NC=NC4NC3)=C2]",80%
3,"N#CC1(Cn2cc(-c3c[nH]c4nc[nH]c(=O)c34)nn2)CCCC1 [Compound 01F01, O=C1NC=NC=2NC=C(C=3N=NN(C3)CC4(C#N)CCCC4)C12]",74%
4,"COC(=O)CCCn1cc(-c2c[nH]c3nc[nH]c(=O)c23)nn1 [Compound 03B10, O=C(OC)CCCN1N=NC(C=2C=3C(=O)NC=NC3NC2)=C1]",58%
5,"O=C1NC[C@@H](Cn2cc(-c3c[nH]c4nc[nH]c(=O)c34)nn2)O1 [Compound 02F04, O=C1O[C@H](CN2N=NC(C=3C=4C(=O)NC=NC4NC3)=C2)CN1]",45%
6,"Cc1ccc2c(c1)[C@H](n1cc(-c3c[nH]c4nc[nH]c(=O)c34)nn1)CCC2 [Compound 01B04, O=C1NC=NC=2NC=C(C=3N=NN(C3)[C@H]4c5c(ccc(c5)C)CCC4)C12]",27%
7,"O=c1[nH]cnc2[nH]cc(-c3cn([C@H]4CC[C@@H]4O)nn3)c12 [Compound 01D04, O=C1NC=NC=2NC=C(C=3N=NN(C3)[C@@H]4[C@@H](O)CC4)C12]",21%
8,"CC(C)CSCCCn1cc(-c2c[nH]c3nc[nH]c(=O)c23)nn1 [Compound 02A03, S(CC(C)C)CCCN1N=NC(C=2C=3C(=O)NC=NC3NC2)=C1]",35%
9,"CC(C)NC(=O)[C@H](C)n1cc(-c2c[nH]c3nc[nH]c(=O)c23)nn1 [Compound 03H02, O=C1NC=NC=2NC=C(C=3N=NN(C3)[C@H](C(=O)NC(C)C)C)C12]",17%
10,"O=c1[nH]cnc2[nH]cc(-c3cn(CCCc4ccccc4)nn3)c12 [Compound 03H07, O=C1NC=NC=2NC=C(C=3N=NN(C3)CCCc4ccccc4)C12]",61%
11,"O=c1[nH]cnc2[nH]cc(-c3cn(C4CCOCC4)nn3)c12 [Compound 02B04, O=C1NC=NC=2NC=C(C=3N=NN(C3)C4CCOCC4)C12]",10%
12,"O=c1[nH]cnc2[nH]cc(-c3cn(Cc4ncon4)nn3)c12 [Compound 01C09, O=C1NC=NC=2NC=C(C=3N=NN(C3)CC4=NOC=N4)C12]",31%
13,"O=c1[nH]cnc2[nH]cc(-c3cn(Cc4cnns4)nn3)c12 [Compound 03G02, S1N=NC=C1CN2N=NC(C=3C=4C(=O)NC=NC4NC3)=C2]",73%
14,"C[C@@H](CN)n1cc(-c2c[nH]c3nc[nH]c(=O)c23)nn1 [Compound 03C02, O=C1NC=NC=2NC=C(C=3N=NN(C3)[C@H](C[NH3+])C)C12]",40%
15,"O=c1[nH]cnc2[nH]cc(-c3cn(CCN4CCOCC4)nn3)c12 [Compound 01E07, O=C1NC=NC=2NC=C(C=3N=NN(C3)CC[NH+]4CCOCC4)C12]",34%
16,"Nc1ccc(-n2cc(-c3c[nH]c4nc[nH]c(=O)c34)nn2)cc1 [Compound 03D05, O=C1NC=NC=2NC=C(C=3N=NN(c4ccc(N)cc4)C3)C12]",2.34%
17,"C[C@@H]1C[C@H](n2cc(-c3c[nH]c4nc[nH]c(=O)c34)nn2)c2ccsc2S1(=O)=O [Compound 03D02, S1(=O)(=O)C=2SC=CC2[C@@H](N3N=NC(C=4C=5C(=O)NC=NC5NC4)=C3)C[C@H]1C]",27%
18,"O=c1[nH]cnc2[nH]cc(-c3cn(CCCN4CCOCC4)nn3)c12 [Compound 03E09, O=C1NC=NC=2NC=C(C=3N=NN(C3)CCC[NH+]4CCOCC4)C12]",66%
19,"COC1([C@H](CO)n2cc(-c3c[nH]c4nc[nH]c(=O)c34)nn2)CCC1 [Compound 02C06, O=C1NC=NC=2NC=C(C=3N=NN(C3)[C@H](C4(OC)CCC4)CO)C12]",5%
20,"CC(C)(C)O[C@H]1C[C@@H](n2cc(-c3c[nH]c4nc[nH]c(=O)c34)nn2)C1 [Compound 02F01, O=C1NC=NC=2NC=C(C=3N=NN(C3)[C@@H]4C[C@H](OC(C)(C)C)C4)C12]",21%
21,"COc1ccnc(-n2cc(-c3c[nH]c4nc[nH]c(=O)c34)nn2)n1 [Compound 02A01, O=C1NC=NC=2NC=C(C=3N=NN(c4nc(OC)ccn4)C3)C12]",19%
22,"O=c1[nH]cnc2[nH]cc(-c3cn(CC4CCCC4)nn3)c12 [Compound 03E11, O=C1NC=NC=2NC=C(C=3N=NN(C3)CC4CCCC4)C12]",39%
23,"O=c1[nH]cnc2[nH]cc(-c3cn(CC4CCCCC4)nn3)c12 [Compound 01B10, O=C1NC=NC=2NC=C(C=3N=NN(C3)CC4CCCCC4)C12]",33%

row,Compound,inhibition at 1 µM
1,"O=c1[nH]cnc2[nH]cc(-c3cn(Cc4cc(C(F)(F)F)on4)nn3)c12 [Compound 01H04, FC(F)(F)C=1ON=C(C1)CN2N=NC(C=3C=4C(=O)NC=NC4NC3)=C2]",22%
2,"O=c1[nH]cnc2[nH]cc(-c3cn(-c4ccc(C(F)(F)F)cc4)nn3)c12 [Compound 03B09, FC(F)(F)c1ccc(N2N=NC(C=3C=4C(=O)NC=NC4NC3)=C2)cc1]",15%
3,"O=c1[nH]cnc2[nH]cc(-c3cn(C[C@@H]4CCOC4)nn3)c12 [Compound 02D06, O=C1NC=NC=2NC=C(C=3N=NN(C3)C[C@H]4COCC4)C12]",26%
4,"COC(=O)C1(n2cc(-c3c[nH]c4nc[nH]c(=O)c34)nn2)CC1 [Compound 03H06, O=C(OC)C1(N2N=NC(C=3C=4C(=O)NC=NC4NC3)=C2)CC1]",24%
5,"O=c1[nH]cnc2[nH]cc(-c3cn(Cc4ccncc4)nn3)c12 [Compound 04A04, O=C1NC=NC=2NC=C(C=3N=NN(C3)Cc4ccncc4)C12]",11%
6,"O=c1[nH]cnc2[nH]cc(-c3cn(CCCN4CCCC4)nn3)c12 [Compound 03H05, O=C1NC=NC=2NC=C(C=3N=NN(C3)CCC[NH+]4CCCC4)C12]",40%
7,"O=c1[nH]cnc2[nH]cc(-c3cn([C@@H]4C[C@H]5CC[C@@H](C4)N5)nn3)c12 [Compound 01G10, O=C1NC=NC=2NC=C(C=3N=NN(C3)[C@@H]4C[C@@H]5[NH2+][C@H](C4)CC5)C12]",44%
8,"O=C(Cn1cc(-c2c[nH]c3nc[nH]c(=O)c23)nn1)Nc1ccccc1 [Compound 01A10, O=C1NC=NC=2NC=C(C=3N=NN(C3)CC(=O)Nc4ccccc4)C12]",41%
9,"CC(C)(C)OC(=O)N[C@@]12CC[C@@H](C[C@H]1n1cc(-c3c[nH]c4nc[nH]c(=O)c34)nn1)C2 [Compound 02G08, O=C(OC(C)(C)C)N[C@@]12[C@H](N3N=NC(C=4C=5C(=O)NC=NC5NC4)=C3)C[C@@H](C1)CC2]",12%
10,"C[C@@H](c1cnnn1C)n1cc(-c2c[nH]c3nc[nH]c(=O)c23)nn1 [Compound 01C01, O=C1NC=NC=2NC=C(C=3N=NN(C3)[C@H](C=4N(N=NC4)C)C)C12]",33%
11,"CCOC(=O)C12CC(Cn3cc(-c4c[nH]c5nc[nH]c(=O)c45)nn3)(C1)OC21CCOCC1 [Compound 03D04, O=C(OCC)C12C3(OC(CN4N=NC(C=5C=6C(=O)NC=NC6NC5)=C4)(C1)C2)CCOCC3]",51%
12,"O=c1[nH]cnc2[nH]cc(-c3cn([C@@H]4C[C@H]5CCC[C@@H](C4)N5)nn3)c12 [Compound 01A08, O=C1NC=NC=2NC=C(C=3N=NN(C3)[C@@H]4C[C@@H]5[NH2+][C@H](C4)CCC5)C12]",38%
13,"COc1ccc(C)cc1[C@@H](C)n1cc(-c2c[nH]c3nc[nH]c(=O)c23)nn1 [Compound 04E04, O=C1NC=NC=2NC=C(C=3N=NN(C3)[C@@H](c4c(OC)ccc(c4)C)C)C12]",65%
14,"NCCOCCn1cc(-c2c[nH]c3nc[nH]c(=O)c23)nn1 [Compound 02F12, O=C1NC=NC=2NC=C(C=3N=NN(C3)CCOCC[NH3+])C12]",39%
15,"O=c1[nH]cnc2[nH]cc(-c3cn(C[C@@H]4CC[C@@H]5C[C@@H]5C4)nn3)c12 [Compound 03A07, O=C1NC=NC=2NC=C(C=3N=NN(C3)C[C@H]4C[C@@H]5[C@@H](C5)CC4)C12]",84%
16,"N#Cc1ccc(Cn2cc(-c3c[nH]c4nc[nH]c(=O)c34)nn2)c(F)c1 [Compound 01A01, Fc1c(ccc(C#N)c1)CN2N=NC(C=3C=4C(=O)NC=NC4NC3)=C2]",12%
17,"COC(=O)c1cc(-n2cc(-c3c[nH]c4nc[nH]c(=O)c34)nn2)ccn1 [Compound 03F03, O=C(OC)c1nccc(N2N=NC(C=3C=4C(=O)NC=NC4NC3)=C2)c1]",10%
18,"COc1nc(OC)nc(-n2cc(-c3c[nH]c4nc[nH]c(=O)c34)nn2)n1 [Compound 03F05, O=C1NC=NC=2NC=C(C=3N=NN(c4nc(OC)nc(OC)n4)C3)C12]",33%
19,"O=c1[nH]cnc2[nH]cc(-c3cn(Cc4cn5cccnc5n4)nn3)c12 [Compound 02C07, O=C1NC=NC=2NC=C(C=3N=NN(C3)CC=4N=C5N=CC=CN5C4)C12]",82%
20,"O=c1[nH]cnc2[nH]cc(-c3cn(-c4cccc5cn[nH]c45)nn3)c12 [Compound 02A05, O=C1NC=NC=2NC=C(C=3N=NN(c4c5NN=Cc5ccc4)C3)C12]",1.22%
21,"O=c1[nH]cnc2[nH]cc(-c3cn(Cc4nc5ccccc5o4)nn3)c12 [Compound 02G05, O=C1NC=NC=2NC=C(C=3N=NN(C3)CC=4Oc5c(N4)cccc5)C12]",38%
22,"Cc1nc(C)c(Cn2cc(-c3c[nH]c4nc[nH]c(=O)c34)nn2)o1 [Compound 03B08, O=C1NC=NC=2NC=C(C=3N=NN(C3)CC=4OC(=NC4C)C)C12]",50%
23,"NC(=O)c1cc(-n2cc(-c3c[nH]c4nc[nH]c(=O)c34)nn2)ccn1 [Compound 01F05, O=C(N)c1nccc(N2N=NC(C=3C=4C(=O)NC=NC4NC3)=C2)c1]",16%
